Data published in US20200024278A1, “COMPOSITION COMPRISING ANTIBIOTIC COMPOUND AND AN HETEROCYCLIC COMPOUND AND THEIR USE IN PREVENTING OR TREATING BACTERIAL INFECTIONS” (MUTABILIS, priority 2016, published 2020).
Read-outs that look alike come from different tables or passages of the source.

Columns and labels:
Assay in all cases: MIC, broth microdilution (CLSI), substance alone or ATB combined with compound at 4 or 8 μg/mL
[1] = system: PAE UFR48; format: cell-based, P. aeruginosa; settings: PAE UFR48
Summary of the method: (§1)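 Each strain received 5·10^5 CFU/mL of log-phase cells in ca-MHB over DMSO-spotted compound or compound-antibiotic combinations. After 16-20 h at 35° C, growth was scored visually.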

[2] = system: PAE UFR90; format: cell-based, P. aeruginosa; settings: PAE UFR90
Summary of the method: as §1

[3] = system: PAE 105250; format: cell-based, P. aeruginosa; settings: PAE 105250
Summary of the method: as §1

[4] = system: KPN UFR42; format: cell-based, K. pneumoniae; settings: for MIC: Klebsiella pneumoniae
Summary of the method: as §1

[5] = system: KPN 6299; format: cell-based, K. pneumoniae; settings: for MIC: Klebsiella pneumoniae
Summary of the method: as §1

[6] = system: KPN BAA-1898; format: cell-based, K. pneumoniae; settings: for MIC: Klebsiella pneumoniae, BAA1898
Summary of the method: as §1

[7] = Pseudomonas aeruginosa, antibiotic alone, read-out: MIC ATB alone

C=CC1=C(C(=O)O)N2C(=O)[C@@H](NC(=O)/C(=N\OCC(=O)O)c3csc(N)n3)[C@H]2SC1 [FIX, Cefixime, reference compound]
MIC ATB combined with Example 12 @8 μg/ml ([1]; with Example 12 at 8 μg/ml): >32 µg/mL | MIC ATB combined with Example 13 @8 μg/ml ([1]; with Example 13 at 8 μg/ml): >32 µg/mL | MIC ATB combined with Example 14 @8 μg/ml ([1]; with Example 14 at 8 μg/ml): >32 µg/mL | MIC ATB combined with Example 15 @4 μgml ([1]; with Example 15 at 4 μg/ml): >32 µg/mL | MIC ATB combined with Example 16 @4 μg/ml ([1]; with Example 16 at 4 μg/ml): >32 µg/mL | MIC [1, 7]: > 512 µg/mL | MIC ATB combined with Example 1 @8 μg/ml ([2]; with Example 1 @8 μg/ml): <0.031 µg/mL | MIC ATB combined with Example 1 @8 μg/ml ([2]; with Example 1 at 8 μg/ml): <0.031 µg/mL | MIC ATB combined with Example 7 @8 μgml ([2]; with Example 7 at 8 μg/ml): >32 µg/mL | MIC ATB combined with Example 9 @4 μg/ml ([2]; with Example 9 @4 μg/ml): >32 µg/mL | MIC ATB combined with Example 9 @4 μg/ml ([2]; with Example 9 at 4 μg/ml): >32 µg/mL | MIC ATB combined with Example 11 @8 μg/ml ([2]; with Example 11 at 8 μg/ml): >32 µg/mL | MIC ATB combined with Example 12 @8 μg/ml ([2]; with Example 12 at 8 μg/ml): >32 µg/mL | MIC ATB combined with Example 13 @8 μg/ml ([2]; with Example 13 at 8 μg/ml): >32 µg/mL | MIC ATB combined with Example 14 @8 μg/ml ([2]; with Example 14 at 8 μg/ml): >32 µg/mL | MIC ATB combined with Example 15 @4 μgml ([2]; with Example 15 at 4 μg/ml): >32 µg/mL | MIC ATB combined with Example 16 @4 μg/ml ([2]; with Example 16 at 4 μg/ml): >32 µg/mL | MIC [2, 7]: > 32 µg/mL | MIC ATB combined with Example 1 @8 μg/ml ([3]; with Example 1 @8 μg/ml): <0.031 µg/mL | MIC ATB combined with Example 1 @8 μg/ml ([3]; with Example 1 at 8 μg/ml): <0.031 µg/mL | MIC ATB combined with Example 7 @8 μgml ([3]; with Example 7 at 8 μg/ml): >32 µg/mL | MIC ATB combined with Example 9 @4 μg/ml ([3]; with Example 9 @4 μg/ml): >32 µg/mL | MIC ATB combined with Example 9 @4 μg/ml ([3]; with Example 9 at 4 μg/ml): >32 µg/mL | MIC ATB combined with Example 11 @8 μg/ml ([3]; with Example 11 at 8 μg/ml): >32 µg/mL | MIC ATB combined with Example 12 @8 μg/ml ([3]; with Example 12 at 8 μg/ml): >32 µg/mL | MIC ATB combined with Example 13 @8 μg/ml ([3]; with Example 13 at 8 μg/ml): >32 µg/mL | MIC ATB combined with Example 14 @8 μg/ml ([3]; with Example 14 at 8 μg/ml): >32 µg/mL | MIC ATB combined with Example 15 @4 μgml ([3]; with Example 15 at 4 μg/ml): >32 µg/mL | MIC ATB combined with Example 16 @4 μg/ml ([3]; with Example 16 at 4 μg/ml): >32 µg/mL | MIC [3, 7]: > 512 µg/mL | MIC ATB combined with Example 1 @8 μg/ml ([4]; KPN UFR42, with Example 1 @8 μg/ml): >32 µg/mL | MIC ATB combined with Example 1 @8 μg/ml ([4]; KPN UFR42, with Example 1 at 8 μg/ml): >32 µg/mL | MIC ATB combined with Example 7 @8 μgml ([4]; KPN UFR42, with Example 7 at 8 μg/ml): >32 µg/mL | MIC ATB combined with Example 9 @4 μg/ml ([4]; KPN UFR42, with Example 9 @4 μg/ml): >32 µg/mL | MIC ATB combined with Example 9 @4 μg/ml ([4]; KPN UFR42, with Example 9 at 4 μg/ml): >32 µg/mL | MIC ATB combined with Example 11 @8 μg/ml ([4]; KPN UFR42, with Example 11 at 8 μg/ml): <0.031 µg/mL | MIC ATB combined with Example 12 @8 μg/ml ([4]; KPN UFR42, with Example 12 at 8 μg/ml): <0.031 µg/mL | MIC ATB combined with Example 13 @8 μg/ml ([4]; KPN UFR42, with Example 13 at 8 μg/ml): >32 µg/mL | MIC ATB combined with Example 14 @8 μg/ml ([4]; KPN UFR42, with Example 14 at 8 μg/ml): <0.031 µg/mL | MIC ATB combined with Example 15 @4 μgml ([4]; KPN UFR42, with Example 15 at 4 μg/ml): <0.031 µg/mL | MIC ATB combined with Example 16 @4 μg/ml ([4]; KPN UFR42, with Example 16 at 4 μg/ml): <0.031 µg/mL | MIC [4]: > 128 µg/mL | MIC ([4]; KPN UFR42, antibiotic alone, read-out: MIC ATB alone): > 256 µg/mL | MIC ([5]; antibiotic alone, read-out: MIC ATB alone): 16 µg/mL | MIC ([5]; substance alone, read-out: MIC): 16 µg/mL | MIC ATB combined with Example 1 @8 μg/ml ([5]; with Example 1 @8 μg/ml): 0.063 µg/mL | MIC ATB combined with Example 1 @8 μg/ml ([5]; with Example 1 at 8 μg/ml): 0.063 µg/mL | MIC ATB combined with Example 7 @8 μgml ([5]; with Example 7 at 8 μg/ml): 0.063 µg/mL | MIC ATB combined with Example 9 @4 μg/ml ([5]; with Example 9 @4 μg/ml): <=0.031 μg/mL | MIC ATB combined with Example 9 @4 μg/ml ([5]; with Example 9 at 4 μg/ml): <=0.031 μg/mL | MIC ATB combined with Example 11 @8 μg/ml ([5]; with Example 11 at 8 μg/ml): <0.031 µg/mL | MIC ATB combined with Example 12 @8 μg/ml ([5]; with Example 12 at 8 μg/ml): <0.031 µg/mL | MIC ATB combined with Example 13 @8 μg/ml ([5]; with Example 13 at 8 μg/ml): <=0.031 μg/mL | MIC ATB combined with Example 14 @8 μg/ml ([5]; with Example 14 at 8 μg/ml): <0.031 µg/mL | MIC ATB combined with Example 15 @4 μgml ([5]; with Example 15 at 4 μg/ml): <0.031 µg/mL | MIC ATB combined with Example 16 @4 μg/ml ([5]; with Example 16 at 4 μg/ml): <0.031 µg/mL | MIC ATB combined with Example 1 @8 μg/ml ([6]; KPN BAA-1898, with Example 1 @8 μg/ml): 0.25 µg/mL | MIC ATB combined with Example 1 @8 μg/ml ([6]; KPN BAA-1898, with Example 1 at 8 μg/ml): 0.25 µg/mL | MIC ATB combined with Example 7 @8 μgml ([6]; KPN BAA-1898, with Example 7 at 8 μg/ml): 0.25 µg/mL | MIC ATB combined with Example 9 @4 μg/ml ([6]; KPN BAA-1898, with Example 9 @4 μg/ml): <0.031 µg/mL | MIC ATB combined with Example 9 @4 μg/ml ([6]; KPN BAA-1898, with Example 9 at 4 μg/ml): <0.031 µg/mL | MIC ATB combined with Example 11 @8 μg/ml ([6]; KPN BAA-1898, with Example 11 at 8 μg/ml): <0.031 µg/mL | MIC ATB combined with Example 12 @8 μg/ml ([6]; KPN BAA-1898, with Example 12 at 8 μg/ml): <0.031 µg/mL | MIC ATB combined with Example 13 @8 μg/ml ([6]; KPN BAA-1898, with Example 13 at 8 μg/ml): 0.5 µg/mL | MIC ATB combined with Example 14 @8 μg/ml ([6]; KPN BAA-1898, with Example 14 at 8 μg/ml): <0.031 µg/mL | MIC ATB combined with Example 15 @4 μgml ([6]; KPN BAA-1898, with Example 15 at 4 μg/ml): <0.031 µg/mL | MIC ATB combined with Example 16 @4 μg/ml ([6]; KPN BAA-1898, with Example 16 at 4 μg/ml): <0.031 µg/mL | MIC [6]: > 128 µg/mL | MIC ([6]; KPN BAA-1898, antibiotic alone, read-out: MIC ATB alone): > 512 µg/mL
